Test results from ChEMBL document CHEMBL1201862, “PubChem BioAssay data set” (2004).
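Compound exposure: 48 hours, 5 concentrations, 96-well plates. GI50 is the concentration that inhibits growth by half.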 Activity calls are given as the source filed them. Cut-off read from the data, not from the text of the source: active = GI50 up to about 1.1 µM and inactive = higher.

Key:
Assay in all cases: NCI tumour cell line growth inhibition, 48 h
[1] = test system: A498
[2] = test system: A549
[3] = test system: CAKI-1
[4] = test system: HCC 2998
[5] = test system: HOP-62
[6] = test system: HOP-92
[7] = test system: HT-29
[8] = test system: IGROV-1
[9] = test system: MCF7
[10] = test system: MOLT-4
[11] = test system: NCI-H23
[12] = test system: NCI-H460
[13] = test system: OVCAR-3
[14] = test system: RPMI-8226
[15] = test system: SNB-19
[16] = test system: SNB-75
[17] = test system: SR
[18] = test system: T47D
[19] = test system: U-251
[20] = test system: SK-MEL-2

Measured: GI50

CCOC(=O)C(NS(=O)(=O)c1ccccc1)(C(F)(F)F)P(=O)(OCC(C)C)OCC(C)C (stereo unspecified)
inactive: [1] > 100 µM | [2] > 100 µM | [3] > 100 µM | [4] > 100 µM | [5] > 100 µM | [6] > 100 µM | [7] > 100 µM | [8] > 100 µM | [9] > 100 µM | [10] > 100 µM | [11] > 100 µM | [12] > 100 µM | [13] > 100 µM | [14] > 100 µM | [15] > 100 µM | [16] > 100 µM | [17] > 100 µM | [18] > 100 µM | [19] > 100 µM

CNc1ccc(C(=O)CC(O)CCC(C)C2OC(=O)CC(O)CC(=O)CC(O)CC(O)CC(O)CC(O)CC3(O)CC(O)C(C(=O)NCCN(C)C)C(CC(OC4OC(C)C(O)C(NC(=O)CN5CCN(C)CC5)C4O)\C=C/C=C\C=C/C=C/C=C/C=C\C=C/C2C)O3)cc1 (stereo unspecified)
inactive: [1] 2.56 µM | [2] 2.88 µM | [3] > 100 µM | [4] 2.55 µM | [5] 25.6 µM | [6] > 100 µM | [7] 3.85 µM | [8] 7.67 µM | [9] 2.36 µM | [10] 4.48 µM | [11] 4.54 µM | [12] 4.73 µM | [20] 6.22 µM | [15] 3.38 µM | [16] > 100 µM | [17] 2.48 µM | [18] 51.4 µM | [19] 4.86 µM

NC(=O)NOCC1NC(=O)NC1=O (stereo unspecified)
inactive: [1] > 100 µM | [2] > 100 µM | [3] > 100 µM | [5] > 100 µM | [6] > 100 µM | [7] > 100 µM | [8] > 100 µM | [9] > 100 µM | [10] > 100 µM | [11] > 100 µM | [12] > 100 µM | [13] > 100 µM | [14] > 100 µM | [20] > 100 µM | [15] > 100 µM | [16] > 100 µM | [17] > 100 µM | [18] > 100 µM | [19] > 100 µM

CN(C)c1ccc(C(Cc2ccccc2)C2NC(=S)NC2=O)cc1 (stereo unspecified)
inactive: [1] > 100 µM | [2] > 100 µM | [3] > 100 µM | [5] > 100 µM | [6] > 100 µM | [7] > 83.6 µM | [8] > 100 µM | [9] > 100 µM | [10] 61.1 µM | [11] > 100 µM | [12] 99.8 µM | [13] > 100 µM | [14] 97.7 µM | [20] > 100 µM | [15] > 100 µM | [16] > 100 µM | [17] 2.17 µM | [18] > 100 µM | [19] > 94 µM

CN(C)/C=N/n1c2ccccc2c2ccccc21
inactive: [1] 26.4 µM | [2] > 100 µM | [3] 3.64 µM | [4] > 100 µM | [5] > 100 µM | [7] > 100 µM | [8] > 100 µM | [9] > 100 µM | [10] 69.8 µM | [11] > 100 µM | [12] > 100 µM | [13] > 100 µM | [14] > 100 µM | [20] > 100 µM | [15] > 100 µM | [16] 71.1 µM | [17] > 100 µM | [18] > 100 µM | [19] > 100 µM

CS(=O)(=O)OCC1OC(n2ccc(NC(=O)c3ccccc3)nc2=O)CC1OS(C)(=O)=O (stereo unspecified)
inactive: [1] > 100 µM | [2] > 100 µM | [3] > 100 µM | [5] > 100 µM | [7] > 100 µM | [8] > 100 µM | [9] > 100 µM | [10] > 100 µM | [11] > 100 µM | [12] > 100 µM | [13] > 100 µM | [14] > 100 µM | [20] > 100 µM | [15] > 100 µM | [16] > 100 µM | [17] > 100 µM | [18] > 100 µM | [19] > 100 µM

C/C=C(/C)C(=O)O[C@@H]1CCN2CC[C@H](COC(=O)/C(=C/C)CO)C12 (stereo partly specified)
inactive: [2] > 100 µM | [3] > 100 µM | [4] 20.7 µM | [5] > 100 µM | [6] 58.2 µM | [7] 28.7 µM | [8] > 100 µM | [9] > 100 µM | [10] 25.9 µM | [11] > 100 µM | [12] 59.6 µM | [13] > 100 µM | [14] 33.5 µM | [20] 41.4 µM | [15] > 100 µM | [16] > 95.3 µM | [17] 39.5 µM | [18] > 100 µM | [19] > 100 µM
